Measurements as given in patent publication US20260014129A1, “MITOCHONDRIAL PYRUVATE METABOLISM INHIBITORS FOR TREATING CHRONIC MYELOID LEUKEMIA” (The University Court of the University of Glasgow, priority 2022, published 2026).

How the values were obtained:
normal CD34+ cells = test: Colony forming cell (CFC) assay of normal CD34+ cells; assay type: cell-based, human; details: 72 hours, n=3 healthy donors
CML CD34+ cells [1] = test: LC-MS steady state metabolite analysis of primary CML CD34+ cells; assay type: cell-based, human
Description: (§1) Cells were counted using a CASY counter with the following parameters: E-cur 7.5-22.5, N-cur 5.25-20.5. Cell number was multiplied by peak volume (size) and this number was used to calculate volume of solvent to extract in. Cells were pelleted by centrifugation (400 RCF, 10 minutes, room temperature) at which medium was removed for YSI analysis. Cells were then washed twice with ice cold PBS (Calcium and Magnesium free: Thermo Fisher Scientific) with pulse centrifugation (12,000RCF, 15 seconds, 4° C.) used between and after washes. Cells were then extracted in LC-grade ACN:MeOH:H2O solvent (−20° C., 5:3:2) by disrupting the pellet by pipetting followed by a 5 second vortex. Finally, debris was pelleted by centrifugation (16,000RCF, 10 minutes, 4° C.), supernatant transferred to LC-MS glass vials that were stored at −80° C. until analysis.
The LC system composed of a ZIC-pHILIC column (SeQuant, 150×2.1 mm, 5 μm, Merck KGaA) with a ZIC-pHILIC guard column (SeQuant, 20×2.1 mm) with an UltiMate 3000 HPLC system (Thermo Fisher Scientific). The aqueous mobile-phase solvent was 20 mM ammonium carbonate-0.1% ammonium hydroxide solution and with acetonitrile being used for organic mobile phase. A linear biphasic LC gradient was conducted from 80% organic to 80% aqueous for 15 min for a total run time of 22 min. The column temperature was maintained at 45° C. flow rate set to 200 μL/min.
The MS used in this study was a qExactive Plus Orbitrap Mass Spectrometer (Thermo Fisher Scientific) operating in polarity switching mode. The MS set up was calibrated using a custom CALMIX in both ionization modes before analysis and a tune file targeted towards the lower m/z range was used. Full scan (MS1) data was acquired in both ionization modes in profile mode at 70,000 resolution (at m/z range 75-1000), an automatic gain control (AGC) target of 1×10^6 (max fill time of 250 ms), with spray voltages +4.5 kV (capillary +50V, tube: […], skimmer: +20V) and −3.5 kV (capillary −50V, tube: […], skimmer: −20V) and s-lens RF level of 50 for the front optics. The capillary temperature 375° C., probe temperature 50′C, sheath gas flow rate 25, auxiliary gas flow rate 15a.u. 15 and sweep gas flow rate of 1a.u.
(§2) The peak areas of different metabolites were determined using Tracefinder 4.1 software (Thermo Fisher Scientific). Metabolites were identified by accurate mass of the singly charged ion and by known retention times on the pHILIC column. A commercially available standard compound mix (Merck: MSMLS-1EA) had been analysed previously on our LC-MS system to determine accurate ion masses and retention times. The 13C labelling was determined by quantifying peak areas for the accurate mass of all isotopologues of each metabolite.
Two independent experiments were performed, data normalised to first sample in each experiment, processed through Autoplotter (56), samples as experiments, and normalised data as replicates. […] For MSDC-0160 treated samples a batch correction (to non-drug control) was used prior to analysis using Metabonalyst. Volcano plots were generated, and an FDR adjusted t-test threshold 0.1 was utilised. Note both fold changes and p-values are log transformed. Top-25 scoring metabolites are included in heatmap.

CML CD34+ cells [2] = test: 13C stable isotope tracing (glucose, glutamine, palmitate) in primary CML CD34+ cells; assay type: cell-based, human
Description: For conjugation of palmitate, a 20 mM stock was made in 100% EtOH. This was incubated on a shaking heater, 60° C. until the solution clarified. The palmitate was then added to 10% BSA (ultra-fatty acid free in EBSS, Roche, 03117057001) to give a palmitate:BSA ratio of 1:3 BSA. This solution was left for 15 min in water bath (37° C.), and then added to final concentration in complete medium. For cell line experiments, the medium was RPMI with 10% dialysed FBS and 1% penicillin/streptomycin. For tracing experiments 11 mM ^13C6 glucose was added to glucose-free RPMI.
as §1, §2
Biological and technical replicates were processed through Autoplotter (56) and natural abundance was corrected for. Fraction of enrichment was calculated as m+2 and above. For CML samples treated with or without imatinib, multiple paired T-tests were conducted on Log 10 transformed values in Graphpad Prism. The correction for multiple comparisons was the two-stage step-up method of Benjamini, Krieger and Yekutieli with an FDR (Q) value of 10%. For volcano plots Log 10 FC vs Log 10 (q value) are plotted with q values>5% in red and >10% in blue. For normal vs CML comparisons, the process was the same with the exception that unpaired t-tests were used. For PC activity in normal vs CML, this is denoted by fraction m+3. For imatinib vs untreated we look at relative activity to PDH. IE., the m+3/m+2 ratio and conducted multiple t-tests with correction for multiple comparisons being the two-stage step-up method of Benjamini, Krieger and Yekutieli with an FDR (Q) value of 10%.

CML CD34+ cells [3] = test: Colony forming cell (CFC) assay of CML CD34+ cells; assay type: cell-based, human; details: 72 hours, n=6 CML patients
FBS (Bos taurus) = system: T1, FBS (Bos taurus); details: as previously reported (ref 44); cited from earlier work
T1 construct: host or cells: FBS in culture medium

[4] = imatinib 2 μM, 48 hours, CML CD34+ cells

T1 sequence (P02769 25-607): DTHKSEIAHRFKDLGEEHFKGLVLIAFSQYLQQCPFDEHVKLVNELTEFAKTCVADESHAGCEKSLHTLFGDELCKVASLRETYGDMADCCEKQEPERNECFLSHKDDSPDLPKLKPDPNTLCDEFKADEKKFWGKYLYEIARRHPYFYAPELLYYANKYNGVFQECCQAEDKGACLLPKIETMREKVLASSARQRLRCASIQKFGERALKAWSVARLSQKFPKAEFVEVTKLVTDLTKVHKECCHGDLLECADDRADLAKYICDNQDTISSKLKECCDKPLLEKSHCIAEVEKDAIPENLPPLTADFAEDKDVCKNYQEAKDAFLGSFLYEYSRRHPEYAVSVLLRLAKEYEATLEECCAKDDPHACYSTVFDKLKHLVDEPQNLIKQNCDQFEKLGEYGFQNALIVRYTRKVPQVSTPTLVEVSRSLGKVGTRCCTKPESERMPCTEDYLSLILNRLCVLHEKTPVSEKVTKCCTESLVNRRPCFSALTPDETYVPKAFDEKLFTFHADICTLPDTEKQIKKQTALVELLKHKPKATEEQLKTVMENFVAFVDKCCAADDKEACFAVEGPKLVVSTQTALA

Cc1ccc(NC(=O)c2ccc(CN3CCN(C)CC3)cc2)cc1Nc1nccc(-c2cccnc2)n1 [imatinib]
CFC potential of normal CD34+ cells, single agent (normal CD34+ cells): no significant effect | ATP levels (CML CD34+ cells [1]; imatinib 2 μM, 48 hours): trend towards reduced ATP levels | oxidative stress, cellular redox and TCA cycle metabolites, steady state (CML CD34+ cells [1]; imatinib 2 μM, 48 hours): decreases | AMP/ATP ratio (CML CD34+ cells [1]; imatinib 2 μM, 48 hours, n=4 patient samples): significant increase in AMP/ATP ratio | glucose incorporation (13C-glucose labelling) in sorted CML CD34+CD38- cells (CML CD34+ cells [2]; imatinib 2 μM, 24 hours, n=3): statistically significant reduction | relative PC/PDH activity in CML CD34+CD38- cells (CML CD34+ cells [2]; imatinib 2 μM, 24 hours, n=3, p-value=0.0870): increased in all three patient samples | PC relative to PDH contribution of glucose (m+3/m+2 ratio in malate, citrate, aspartate) (CML CD34+ cells [2]; [4]): increased | glucose contribution to metabolite fraction labelling (13C6 glucose) (CML CD34+ cells [2]; [4]): reduced | glutamine contribution to metabolite fraction labelling (13C5 glutamine) (CML CD34+ cells [2]; [4]): reduced | palmitate contribution to metabolite fraction labelling (13C16 palmitate) (CML CD34+ cells [2]; [4]): not significantly different | labelled fractions of TCA cycle metabolites affected (CML CD34+ cells [2]; imatinib, primary CML CD34+ samples, not shown): only affected m+2 fractions | number of colonies (CML CD34+ cells [3]; 2 μM imatinib alone): reduced the number of colonies

CCc1ccc(C(=O)COc2ccc(CC3SC(=O)NC3=O)cc2)nc1 (stereo not shown) [MSDC-0160]
CFC potential of normal CD34+ cells, single agent (normal CD34+ cells): no significant effect | CFC potential of normal CD34+ cells, combination treatment (normal CD34+ cells; MSDC-0160 plus 2 μM imatinib): no significant effect | dose at which steady state analysis showed significant metabolic changes (CML CD34+ cells [1]; primary CML CD34+ samples, 24 hours, highest dose): 100 µM | binding to FBS (FBS (Bos taurus)): high FBS binding | m+2 and m+3 fractions of TCA cycle metabolites (CML CD34+ cells [2]; 20 or 100 μM MSDC-0160, primary CML CD34+ samples): significant decreases to both m+2 and m+3 fractions | inhibition of glucose oxidation in primitive CD34+CD38- population (CML CD34+ cells [2]; compared with CD34+CD38+ progenitor population, data not shown): to a similar extent as in the CD34^+CD38^+ progenitor population | inhibition of labelling in stromal co-culture (CML CD34+ cells [2]; presence of stromal cells, 24-hour culture, 50 uM): also achieved in the presence of stromal cells | total glucose contribution and m+3 contribution to TCA cycle metabolites (CML CD34+ cells [2]; primary CML CD34+ samples, 24 hours): reduced both total glucose contribution and m+3 contribution to TCA cycle metabolites in a dose-dependent manner | dose required to fully inhibit labelling (CML CD34+ cells [2]; primary CML CD34+ samples, medium with Albumax II): 100 µM | number of colonies, MSDC-0160 added to imatinib (CML CD34+ cells [3]; 20 or 50 μM MSDC-0160 plus 2 μM imatinib): further concentration-dependent reduction
